Laboratory results reported in patent US20230265116A1, “DEGRADATION OF (EGFR) BY CONJUGATION OF EGFR INHIBITORS WITH E3 LIGASE LIGAND AND METHODS OF USE” (BEIGENE, LTD., priority 2020, published 2023).

Tests used:
Type in all cases: cell-based
[1] = target: T1, EGFR L858R/T790M/C797S (BaF3-LTC cells) (Homo sapiens, UniProt P00533, C797S/L858R/T790M); test: EGFR degradation HTRF assay, BaF3-LTC cells; conditions: BaF3-LTC cells; for DC50: EGFR degradation, IC50 (DC50) from curve fit, read-out: DC50(nM) BaF3-LTC; for Dmax: maximum percentage of inhibition (degradation), read-out: Dmax (%) BaF3-LTC
T1 construct: expressed in transfected cells; host or cells: BaF3
T1 sequence (P00533 25-1210 T790M/C797S/L858R): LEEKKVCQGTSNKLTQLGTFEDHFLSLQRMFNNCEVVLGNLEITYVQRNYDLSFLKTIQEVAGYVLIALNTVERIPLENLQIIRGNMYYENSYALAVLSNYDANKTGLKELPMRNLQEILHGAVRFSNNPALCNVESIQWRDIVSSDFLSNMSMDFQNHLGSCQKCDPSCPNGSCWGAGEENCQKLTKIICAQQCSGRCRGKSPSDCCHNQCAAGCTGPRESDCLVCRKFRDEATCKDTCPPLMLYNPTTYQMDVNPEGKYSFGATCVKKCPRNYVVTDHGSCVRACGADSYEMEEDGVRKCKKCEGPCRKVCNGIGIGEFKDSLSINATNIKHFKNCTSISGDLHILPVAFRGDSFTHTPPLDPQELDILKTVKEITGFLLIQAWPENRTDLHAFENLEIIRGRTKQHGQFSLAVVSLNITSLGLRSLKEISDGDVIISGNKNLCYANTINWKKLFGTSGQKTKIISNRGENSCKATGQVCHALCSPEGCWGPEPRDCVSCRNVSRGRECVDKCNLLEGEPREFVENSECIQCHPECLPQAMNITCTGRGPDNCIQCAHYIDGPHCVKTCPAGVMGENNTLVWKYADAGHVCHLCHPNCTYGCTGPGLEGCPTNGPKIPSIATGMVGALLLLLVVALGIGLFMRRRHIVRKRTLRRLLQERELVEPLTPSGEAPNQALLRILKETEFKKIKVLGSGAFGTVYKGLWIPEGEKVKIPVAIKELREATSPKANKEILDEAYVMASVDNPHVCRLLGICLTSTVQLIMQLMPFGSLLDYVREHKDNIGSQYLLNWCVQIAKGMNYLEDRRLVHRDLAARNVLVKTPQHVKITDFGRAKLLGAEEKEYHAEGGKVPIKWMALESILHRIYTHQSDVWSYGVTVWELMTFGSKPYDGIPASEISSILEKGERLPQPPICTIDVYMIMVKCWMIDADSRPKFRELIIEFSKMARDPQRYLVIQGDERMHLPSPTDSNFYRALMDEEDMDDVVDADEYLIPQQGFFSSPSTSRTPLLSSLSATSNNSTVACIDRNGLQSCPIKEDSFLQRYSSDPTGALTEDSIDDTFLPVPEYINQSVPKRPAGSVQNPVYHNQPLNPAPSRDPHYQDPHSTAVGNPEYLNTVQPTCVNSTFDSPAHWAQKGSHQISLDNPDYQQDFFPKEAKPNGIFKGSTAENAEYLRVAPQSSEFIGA
Summary of the method: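 Cells treated 16 h at 37 °C, 5% CO2 in medium with 0.2% DMSO; top final concentration 10 uM, 5-fold dilution, 8 doses. Lysates read by HTRF (665/620 nm); degradation % versus DMSO high control, DC50 from four-parameter fit, Dmax as maximal degradation.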

[2] = system: EGFR Del19/T790M/C797S (H1975-clone #28); test: EGFR degradation HTRF assay, H1975-clone #28 DTC cells; conditions: H1975 # 28 DTC cells; for DC50: EGFR degradation, IC50 (DC50) from curve fit, read-out: DC50(nM) H1975 # 28 DTC; for Dmax (%) H1975 # 28 DTC: maximum percentage of inhibition (degradation)
Summary of the method: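 The test uses H1975 clonal lines carrying lentiviral mutant EGFR with endogenous copies removed, treated 16h at 37° C., 5% CO2. EGFR left in the lysate is quantified by HTRF, and DC50 is derived from an 8-dose curve starting at 10 uM final.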

[3] = target: T2, EGFR L858R/C797S (BaF3 LC cells) (Homo sapiens, UniProt P00533, C797S/L858R); test: EGFR degradation HTRF assay, BaF3 LC cells; conditions: BaF3 LC, 16h treatment; for Dmax: maximum percentage of degradation, read-out: BaF3 LC Dmax (%); for DC50: read-out: BaF3 LC DC50
T2 construct: expressed in transfected cells; host or cells: BaF3
T2 sequence (P00533 25-1210 C797S/L858R): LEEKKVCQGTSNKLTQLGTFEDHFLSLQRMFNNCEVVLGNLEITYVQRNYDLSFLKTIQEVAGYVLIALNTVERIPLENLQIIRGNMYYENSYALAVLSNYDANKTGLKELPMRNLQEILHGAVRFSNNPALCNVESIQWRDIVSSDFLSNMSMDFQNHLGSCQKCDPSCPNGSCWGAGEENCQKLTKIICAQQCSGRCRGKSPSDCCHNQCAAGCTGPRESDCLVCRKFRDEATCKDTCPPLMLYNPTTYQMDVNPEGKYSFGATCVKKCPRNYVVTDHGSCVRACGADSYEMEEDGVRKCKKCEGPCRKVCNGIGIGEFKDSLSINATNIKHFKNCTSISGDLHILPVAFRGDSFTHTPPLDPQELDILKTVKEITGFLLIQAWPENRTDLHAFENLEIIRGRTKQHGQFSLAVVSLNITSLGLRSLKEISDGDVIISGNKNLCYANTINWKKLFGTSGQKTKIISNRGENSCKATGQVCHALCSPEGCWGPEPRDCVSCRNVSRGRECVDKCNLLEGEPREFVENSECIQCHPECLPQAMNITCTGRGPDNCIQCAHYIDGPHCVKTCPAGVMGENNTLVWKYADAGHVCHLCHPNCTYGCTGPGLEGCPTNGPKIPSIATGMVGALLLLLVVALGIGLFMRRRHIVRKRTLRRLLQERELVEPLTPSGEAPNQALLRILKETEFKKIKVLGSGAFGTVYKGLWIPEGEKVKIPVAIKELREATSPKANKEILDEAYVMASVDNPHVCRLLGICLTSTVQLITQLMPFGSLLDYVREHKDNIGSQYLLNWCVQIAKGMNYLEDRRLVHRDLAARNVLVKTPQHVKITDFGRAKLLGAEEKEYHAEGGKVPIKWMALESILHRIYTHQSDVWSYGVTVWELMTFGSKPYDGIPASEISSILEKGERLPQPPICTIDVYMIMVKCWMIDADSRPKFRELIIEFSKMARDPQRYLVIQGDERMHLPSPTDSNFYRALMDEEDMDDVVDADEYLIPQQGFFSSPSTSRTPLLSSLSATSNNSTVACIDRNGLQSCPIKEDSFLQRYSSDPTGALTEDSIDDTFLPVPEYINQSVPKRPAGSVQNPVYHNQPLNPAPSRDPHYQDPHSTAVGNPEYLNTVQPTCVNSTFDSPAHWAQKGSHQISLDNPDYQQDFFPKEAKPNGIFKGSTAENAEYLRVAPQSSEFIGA

[4] = system: EGFR Del19/C797S (H1975-clone #23); test: EGFR degradation HTRF assay, H1975-clone #23 DC cells; conditions: 16h treatment; for H1975 #23 DC Dmax (%): maximum percentage of degradation; for DC50: H1975 #23 DC, read-out: H1975 #23 DC DC50
Method: H1975-clone #28(Del19/T790M/C797S) and H1975-clone #23(Del19/C797S). EGFR-Del19/T790M/C797S and EGFR-Del19/C797S were stably expressed in H1975 cell lines by lentivirus-mediated over-expression, respectively. The EGFR over-expressed cells then underwent gene knockout, in which the EGFR targeting sgRNA was designed to only target the endogenous EGFR copies and preserve the exogenous EGFR copies. Followed by the gene knockout, the edited H1975 cells were seeded in 96 well plates at the concentration of 1 cell/well, cultured for about 2 weeks to allow single clones formation. The formed clones were screened by DNA sequencing and whole exon sequencing analysis for the desired edition. H1975-clone #28 and H1975-clone #23 were finally confirmed as homozygous Del19/T790M/C797S EGFR and Del19/C797S EGFR clones, respectively.
BaF3 WT(wild type), BaF3-LTC(L858R/T790M/C797S) and BaF3-DTC(Del19/T790M/C797S) cells are treated with compounds diluted in 0.2% DMSO cell culture medium and incubate for 16h, 37° C., 5% CO2, H1975-#36, H1975-#28, H1975-#23 and HCC827 cells are treated with compounds diluted in 0.2% DMSO cell culture medium on day 2, incubate for 16h, 37° C., 5% CO2.the final concentriation of compounds in all assay is start with 10 uM, 5-fold dilution, total 8 doses were included.
After 16h treatment, add HTRF lysis buffer to each well; seal the plate and incubate 1 hour at room temperature on a plate shaker; Once the cells are lysed, 16 μL of cell lysate are transferred to a PE 384-well HTRF detection plate; 4 μL of pre-mixed HTRF antibodies are added to each well; Cover the plate with a plate sealer, spin 1000 rpm for 1 min, Incubate overnight at room temperature; Read on BMG PheraStar with HTRF protocol (337 nm-665 nm-620 nm).
The inhibition (degradation) percentage of the compound was calculated by the following equation: Inhibition percentage of Compound=100-100×(Signal-low control)/(High control-low control), wherein signal=each test compound group
High control=Cell group with added DMSO and without compound, indicating microplate readings without EGFR degradation;
Dmax is the maximum percentage of inhibition (degradation).
The IC50 (DC50) value of a compound can be obtained by fitting the following equation
Y=Bottom+(TOP−Bottom)/(1+((IC50/X)^hillslope))
Wherein, X and Y are known values, and IC50, Hillslope, Top and Bottom are the parameters obtained by fitting with software. Y is the inhibition percentage (calculated from the equation), X is the concentration of the compound; IC50 is the concentration of the compound when the 50% inhibition is reached. The smaller the IC50 value is, the stronger the inhibitory ability of the compound is. Vice versa, the higher the IC50 value is, the weaker the inhibitory ability of the compound is; Hillslope represents the slope of the fitted curve, generally around 1*; Bottom represents the minimum value of the curve obtained by data fitting, which is generally 0%±20%; Top represents the maximum value of the curve obtained by data fitting, which is generally 100%±20%. The experimental data were fitted by calculating and analyzing with Dotmatics data analysis software.

DC50 [1] [nM] | Dmax [1] [%] | DC50 [2] [nM] | Dmax [3] [%] | DC50 [3] [nM] | DC50 [4] [nM] | SMILES | Dmax (%) H1975 # 28 DTC [2] [%] | H1975 #23 DC Dmax (%) [4] [%]
10.6 | 92.5 | 1.04 | 88.9 | 9.67 | 3.3 | CCc1cc(Nc2ncc(Br)c(Nc3cc(F)c4nc(C)ccc4c3P(C)(C)=O)n2)c(OC)cc1N1CCC(N2CCN(C(=O)[C@@H]3CCN(c4cc(F)c([C@H]5CCC(=O)NC5=O)c(F)c4)C3)CC2)CC1 [Example 511, (R)-3-(4-((R)-3-(4-(1-(4-((5-bromo-4-((5-(dimethylphosphoryl)-8-fluoro-2-methylquinolin-6-yl)amino)pyrimidin-2-yl)amino)-2-ethyl-5-methoxyphenyl)piperidin-4-yl)piperazine-1-carbonyl)pyrrolidin-1-yl)-2,6-difluorophenyl)piperidine-2,6-dione] | 65 | 67.01
2.31 |  | 0.608 |  | 10.1 | 1.69 | CCc1cc(Nc2ncc(Br)c(Nc3ccc4c(=O)n(C)ncc4c3P(C)(C)=O)n2)c(OC)cc1N1CCC(N2CCN(CCc3cccc4c3C3(CC3)C(=O)N4C3CCC(=O)NC3=O)CC2)CC1 (centres unmarked) [Example 756, 3-(4′-(2-(4-(1-(4-((5-bromo-4-((5-(dimethylphosphoryl)-2-methyl-1-oxo-1,2-dihydrophthalazin-6-yl)amino)pyrimidin-2-yl)amino)-2-ethyl-5-methoxyphenyl)piperidin-4-yl)piperazin-1-yl)ethyl)-2′-oxospiro[cyclopropane-1,3′-indolin]-1′-yl)piperidine-2,6-dione] | 80.03 | 73.8
6.1 | 93 | 0.96 | 91.7 | 22.5 | 2.04 | CCc1cc(Nc2ncc(Br)c(Nc3ccc4nc(C)ccc4c3P(C)(C)=O)n2)c(OC)cc1N1CCC(N2CCN(CCc3cccc4c3oc(=O)n4C3CCC(=O)NC3=O)CC2)CC1 (centres unmarked) [Example 506, 3-(7-(2-(4-(1-(4-((5-bromo-4-((5-(dimethylphosphoryl)-2-methylquinolin-6-yl)amino)pyrimidin-2-yl)amino)-2-ethyl-5-methoxyphenyl)piperidin-4-yl)piperazin-1-yl)ethyl)-2-oxobenzo[d]oxazol-3(2H)-yl)piperidine-2,6-dione] | 84.41 | 80.87
5.25 |  | 2.22 |  | 10.1 | 4.02 | CCc1cc(Nc2ncc(Br)c(Nc3ccc4nc(C)ccc4c3P(C)(C)=O)n2)c(OC)cc1N1CCC(N2CCN(C(=O)[C@H]3CN(c4cc(F)c([C@H]5CCC(=O)NC5=O)c(F)c4)CC3(C)C)CC2)CC1 [Example 487, (R)-3-(4-((R)-4-(4-(1-(4-((5-bromo-4-((5-(dimethylphosphoryl)-2-methylquinolin-6-yl)amino)pyrimidin-2-yl)amino)-2-ethyl-5-methoxyphenyl)piperidin-4-yl)piperazine-1-carbonyl)-3,3-dimethylpyrrolidin-1-yl)-2,6-difluorophenyl)piperidine-2,6-dione] | 85.45 | 74.41
6.19 |  | 1.62 |  | 46.5 | 5.64 | CCOc1cc(N2CCC(N3CCN(CC4CN(c5cc(F)c([C@H]6CCC(=O)NC6=O)c(F)c5)C4)CC3)CC2)c(CC)cc1Nc1ncc(Br)c(Nc2ccc3c(=O)n(CC)ncc3c2P(C)(C)=O)n1 [Example 551, (R)-3-(4-(3-((4-(1-(4-((5-bromo-4-((5-(dimethylphosphoryl)-2-ethyl-1-oxo-1,2-dihydrophthalazin-6-yl)amino)pyrimidin-2-yl)amino)-5-ethoxy-2-ethylphenyl)piperidin-4-yl)piperazin-1-yl)methyl)azetidin-1-yl)-2,6-difluorophenyl)piperidine-2,6-dione] | 90.57 | 84.14
 |  | 1.17 |  | 26.1 | 6.52 | CCc1cc(Nc2ncc(Br)c(Nc3ccc4nc(C)ccc4c3P(C)(C)=O)n2)c(OC)cc1N1CCC(N2CCN(C(=O)[C@@H]3CCN(c4cc(F)c([C@H]5CCC(=O)NC5=O)c(F)c4)C3)CC2)CC1 [Example 750, (R)-3-(4-((R)-3-(4-(1-(4-((5-bromo-4-((5-(dimethylphosphoryl)-2-methylquinolin-6-yl)amino)pyrimidin-2-yl)amino)-2-ethyl-5-methoxyphenyl)piperidin-4-yl)piperazine-1-carbonyl)pyrrolidin-1-yl)-2,6-difluorophenyl)piperidine-2,6-dione] | 84.8 | 74.02
 |  |  | 94.8 | 1.83 | 1.11 | CCc1ccc2c(P(C)(C)=O)c(Nc3nc(Nc4cc(CC)c(N5CCC(N6CCN(CCc7cccc8c7n(C)c(=O)n8C7CCC(=O)NC7=O)CC6)CC5)cc4OC)ncc3Br)ccc2n1 (centres unmarked) [Example 516, 3-(4-(2-(4-(1-(4-((5-bromo-4-((5-(dimethylphosphoryl)-2-ethylquinolin-6-yl)amino)pyrimidin-2-yl)amino)-2-ethyl-5-methoxyphenyl)piperidin-4-yl)piperazin-1-yl)ethyl)-3-methyl-2-oxo-2,3-dihydro-1H-benzo[d]imidazol-1-yl)piperidine-2,6-dione] |  | 78.66
 |  | 0.781 |  | 11.9 | 3.54 | CCc1ccc2c(P(C)(C)=O)c(Nc3nc(Nc4cc(CC)c(N5CCC(N6CCN(CCc7cc(F)c([C@H]8CCC(=O)NC8=O)c(F)c7)CC6)CC5)cc4OC)ncc3Br)ccc2n1 [Example 484, (R)-3-(4-(2-(4-(1-(4-((5-bromo-4-((5-(dimethylphosphoryl)-2-ethylquinolin-6-yl)amino)pyrimidin-2-yl)amino)-2-ethyl-5-methoxyphenyl)piperidin-4-yl)piperazin-1-yl)ethyl)-2,6-difluorophenyl)piperidine-2,6-dione] | 89.6 | 82.99
 |  | 1.37 |  | 19.7 | 4.72 | CCc1ccc2c(P(C)(C)=O)c(Nc3nc(Nc4cc(CC)c(N5CCC(N6CCN(C(=O)[C@@H]7CCN(c8cc(F)c([C@H]9CCC(=O)NC9=O)c(F)c8)C7)CC6)CC5)cc4OC)ncc3Br)ccc2n1 [Example 489, (R)-3-(4-((R)-3-(4-(1-(4-((5-bromo-4-((5-(dimethylphosphoryl)-2-ethylquinolin-6-yl)amino)pyrimidin-2-yl)amino)-2-ethyl-5-methoxyphenyl)piperidin-4-yl)piperazine-1-carbonyl)pyrrolidin-1-yl)-2,6-difluorophenyl)piperidine-2,6-dione] | 82.72 | 59.94
